# Patent US12139481B2, “Compositions comprising macrocycle derivatives incorporating bridged macrocycles and methods of producing and using same” (Southwestern Oklahoma State University, priority 2015, dated 2024)
# Legend:
# [1] = tested on: L. donovani promastigotes; assay: Antileishmanial Alamar Blue assay on promastigotes; type: cell-based, Leishmania donovani; conditions: for X more potent than Pentamidine: L. donovani, ratio of molar IC50 to Pentamidine; for L. donovani IC50 / IC50: promastigotes, 48 hours, Alamar Blue; for IC50: read-out: L. donavani IC50
# Procedure: Methods: The compounds were screened in vitro against the promastigote forms of the leishmania parasites employing the Alamar Blue assay as discussed below.
# Antileishmanial activity of the compounds was tested in vitro against a culture of L. donovani promastigotes, grown in RPMI 1640 medium supplemented with 10% fetal calf serum (FCS, Gibco Chem. Co., Grand Island, NY) at 26° C. A 3-day-old culture was diluted to 5×10^5 promastigotes/mL. Drug dilutions (50-3.1 μg/mL) were prepared directly in cell suspension in 96-well plates. Plates were incubated at 26° C. for 48 hours, and growth of leishmania promastigotes was determined by Alamar Blue assay. Standard fluorescence was measured on a FLUOstar® Galaxy plate reader (BMG Lab Technologies, Ortenberg, Germany) at an excitation wavelength of 544 nm and emission wavelength of 590 nm. Pentamidine and amphotericin B were used as the standard antileishmanial agents. Percent growth was calculated and plotted versus test concentration for computing the IC50 values.
# [2] = tested on: Cryptococcus neoformans ATCC 90113; assay: Antimicrobial microdilution assay against Cryptococcus neoformans (modified CLSI/NCCLS, optical density); type: cell-based; conditions: for X more potent than Amphotericin B: C. neoformans, ratio of molar IC50 to Amphotericin B; for C. neoformans IC50 / IC50: in vitro, C. neoformans ATCC 90113; for IC50: read-out: C. neoformans IC50 (mol/L)
# Method in brief: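 Fungicidal endpoint taken by subculturing 5 μL from each clear well onto agar, MFC being the lowest concentration with no regrowth. Duplicate wells of serially diluted compound (20% DMSO/saline) in RPMI pH 6.0, read at 630 nm pre- and post-incubation, under modified CLSI methods. IC50 means 50% growth inhibition against controls.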
# [3] = tested on: Staphylococcus aureus ATCC 29213; assay: Antibacterial broth dilution assay against S. aureus (modified CLSI); type: cell-based; conditions: for S. aureus IC50 / IC50: in vitro; for IC50: converted with molecular weight; for X more potent than ciprofloxacen: molar IC50 ratio versus ciprofloxacen
# Procedure: (§1) General Experimental Procedures. All organisms were obtained from the American Type Culture Collection (Manassas, VA) and include the fungi Candida albicans ATCC 90028, C. glabrata ATCC 90030, C. krusei ATCC 6258, and Cryptococcus neoformans ATCC 90113, and the bacteria Staphylococcus aureus ATCC 29213 and methicillin-resistant S. aureus ATCC 33591 (MRS). All organisms were tested using modified versions of the CLSI (formerly NCCLS) methods. For all organisms, optical density was used to monitor growth (NCCLS, Reference Method for Broth Dilution Antifungal Susceptibility Testing of Yeasts; Approved Standard M27-A2. National Committee on Clinical Laboratory Standards, 2002 22 (15); and NCCLS, Methods for Dilution Antimicrobial Susceptibility Tests for Bacteria that Grow Aerobically; Approved Standard, Seventh Edition M7-A7. National Committee on Clinical Laboratory Standards, 2006. 26(2)).
# (§2) Samples (dissolved in DMSO) were serially-diluted in 20% DMSO/saline and transferred (10 μL) in duplicate to 96 well flat bottom microplates. Inocula were prepared by correcting the OD630 of microbe suspensions in incubation broth [RPMI 1640/0.2% dextrose/0.03% glutamine/MOPS @ pH 6.0 (Cellgro) for Candida spp., Sabouraud Dextrose for C. neoformans, and cation-adjusted Mueller-Hinton (Difco) @ pH 7.3 for Staphylococcus spp. to afford an assay volume of […] and final target inocula of: Candida spp. and C. neoformans: 1.5×10^3, and Staphylococcus spp.: 5.0×10^5 CFU/ml. Final sample test concentrations were 1/100th the DMSO stock concentration. […] All organisms were read at either 530 nm using the Biotek Powerwave XS plate reader (Bio-Tek Instruments, Vermont) prior to and after incubation: Candida spp. at 35° C. for 46-50 h, Staphylococcus spp. at 35° C. for 16-20 h, and C. neoformans at 35° C. for 70-74 h. IC50s (concentrations that afford 50% inhibition relative to controls) were calculated using XLfit 4.2 software (IDBS, Alameda, CA) using fit model 201. The MIC is defined as the lowest test concentration that allows no detectable growth. Minimum fungicidal or bactericidal concentrations were determined by removing 5 μl from each clear (or blue) well, transferring to fresh media, and incubating as previously mentioned. The MFC/MBC is defined as the lowest test concentration that kills the organism (allows no growth).
# (§3) Primary Analysis. Samples were tested in duplicate at one test concentration (50 μg/mL), and percent inhibitions were calculated relative to blank and growth controls. Samples showing 50% inhibition in at least one test organism were selected for dose response (Secondary) studies.
# (§4) Secondary Analysis. Extracts from the Primary Assay, and first-run pure compounds and column fractions were tested in duplicate at 3 test concentrations (5-fold dilutions). Samples dissolved to 20 mg/mL in DMSO were tested at 200, 40, and 8 μg/mL. Samples dissolved to 2 mg/mL in DMSO were tested at 20, 4, and 0.8 μg/mL.
# C. glabrata ATCC 90030 = assay: Antifungal broth dilution assay against C. glabrata (modified CLSI); type: cell-based, Candida glabrata; conditions: for C. glabrata IC50 / IC50: in vitro; for IC50: converted with molecular weight; for X more potent than Amphotericin B: molar IC50 ratio versus amphotericin B
# Procedure: as §1, §2, §3, §4
Molecule,X more potent than Pentamidine [1],L. donovani IC50 [1],IC50 [1],X more potent than Amphotericin B [2],C. neoformans IC50 [2],IC50 [2],S. aureus IC50 [3],IC50 [3],X more potent than ciprofloxacen [3],C. glabrata IC50 (C. glabrata ATCC 90030),IC50 (C. glabrata ATCC 90030),X more potent than Amphotericin B (C. glabrata ATCC 90030)
"Clc1cc(CN2CCN3CCN(CCN(Cc4ccc(CN5CCN6CCN(CC5)CCN(Cc5cc(Cl)nc(Cl)c5)CC6)cc4)CC3)CC2)cc(Cl)n1 [PW111A, p-dcp2-CB-cyclens]",0.34,12.89 µg/mL,15.7 µM,4.88,0.040 µg/mL,0.0488 µM,5.530 µg/mL,6.75 µM,0.04,,,
"CC(=O)[O-].CC(=O)[O-].CC(=O)[O-].CN1CCCN2CCN(CCCN(Cc3cc(CN4CCCN5CCN(C)CCCN(CC5)CC4)cc(CN4CCCN5CCN(C)CCCN(CC5)CC4)c3)CC2)CC1.F[P-](F)(F)(F)(F)F.F[P-](F)(F)(F)(F)F.F[P-](F)(F)(F)(F)F.[Cu+2].[Cu+2].[Cu+2] [BNS25, [Cu3(tris-CB-Cyclams)(OAc)3][PF6]3]",,,,0.20,1.950 µg/mL,1.19 µM,,,,5.420 µg/mL,3.31 µM,0.43
[Cu2(p-CB-cyclam-cyclen)(OAc)2][PF6]2 [CMB029],,,,0.32,≤ 0.800 µg/mL,0.734 µM,,,,4.190 µg/mL,3.84 µM,0.37
"C1CNCCN2CCCNCCN(C1)CCC2.CC(=O)[O-].F[P-](F)(F)(F)(F)F.F[P-](F)(F)(F)(F)F.O.[Co+2].[NH4+] [SLK38B, [Co(H2PBCyclam)(OAc)]PF6•NH4PF6•H2O]",,,,0.03,6.230 µg/mL,9.1 µM,,,,0.375 µg/mL,0.548 µM,2.59
[Ni2(p-CB-cyclam-cyclen)(OAc)2][PF6]2 [CMB028],0.19,30.69 µg/mL,28.4 µM,0.19,1.330 µg/mL,1.23 µM,,,,4.490 µg/mL,4.16 µM,0.34
[p-(DCP-BMBCyclams)]Br4 [SLK26],0.43,14.76 µg/mL,12.4 µM,,,,,,,5.705 µg/mL,4.78 µM,0.30
"CC(=O)[O-].CC(=O)[O-].CN1CCCN2CCN(CCCN(Cc3ccc(CN4CCCN5CCN(C)CCCN(CC5)CC4)cc3)CC2)CC1.F[P-](F)(F)(F)(F)F.F[P-](F)(F)(F)(F)F.[Zn+2].[Zn+2] [KS34, [Zn2(p-CB-cyclams)(OAc)2](PF6)2]",0.25,23.49 µg/mL,,0.41,0.650 µg/mL,,,,,15.760 µg/mL,,0.10
[Co2(m-SB-cyclam-cyclen)(OAc)2][PF6]4•H2O [CMB032],,,,0.41,≤ 0.800 µg/mL,0.588 µM,,,,1.310 µg/mL,0.963 µM,1.47
"CC(=O)[O-].F[P-](F)(F)(F)(F)F.O.[Co+2].c1ccc(CN2CCCNCCN(Cc3ccccc3)CCCNCC2)cc1 [BME07, [Co(Bn2Cyclam)(OAc)PF6•H2O]",,,,0.02,6.980 µg/mL,10.6 µM,,,,0.597 µg/mL,0.903 µM,1.57
[Co2(p-SB-cyclam-cyclen)(OAc)2][PF6]2 [CMB016A],0.17,33.81 µg/mL,32.1 µM,0.16,1.570 µg/mL,1.49 µM,,,,1.100 µg/mL,1.04 µM,1.36
[Co3(tris-CB-Cyclams)(OAc)1.51][PF6]4.5 [BNS24],,,,0.52,≤ 0.800 µg/mL,0.456 µM,,,,1.490 µg/mL,0.85 µM,1.67
"C1CNCCN2CCCNCCN(C1)CCC2 [DJD27, H2PBCyclam]",,,,0.03,1.830 µg/mL,7.61 µM,,,,3.380 µg/mL,14.1 µM,0.10
[m-(BMBCyclams)]Br2 [DJD05],0.21,18.18 µg/mL,25.5 µM,0.05,3.250 µg/mL,4.56 µM,,,,4.213 µg/mL,5.91 µM,0.24
[Zn2(m-cyclam-homocyclen)(OAc)2][PF6]2 [AW052B],0.33,17.60 µg/mL,15.9 µM,0.23,1.150 µg/mL,1.04 µM,6.580 µg/mL,5.94 µM,0.05,,,
"O.[Cl][Fe-2]([Cl])([Cl])[Cl].[Fe+2].c1ccc(CN2CCCN3CCCN(CCCN(Cc4ccccc4)CC3)CC2)cc1 [BME09, [Fe(Bn2PBCyclam)][FeCl4]•H2O]",0.26,14.10 µg/mL,20.4 µM,0.15,1.070 µg/mL,1.55 µM,5.130 µg/mL,7.41 µM,0.04,,,
[Ni2(p-CB-Homocyclens)(OAc)2][PF6]2 [TJH378A],,,,0.03,7.540 µg/mL,6.98 µM,,,,5.150 µg/mL,4.77 µM,0.30
"CC(=O)[O-].CC(=O)[O-].[Cu+2].c1ccc(CN2CCCN3CCCN(CCCN(Cc4ccccc4)CC3)CC2)cc1 [DJD20, Cu(Bn2PBCyclam)(OAc)2]",0.22,14.65 µg/mL,24.3 µM,0.05,3.130 µg/mL,5.2 µM,6.880 µg/mL,11.4 µM,0.02,,,
